Where two headings read alike, the source gives them in different places. *1 amine or outer side, *2 acyl side, *3 side chain or, on linkers, in order; H or OH if unused. Where a SMILES comes first, the peptide text is derived from it. Bridges are numbered along the chain shown (N, C = ends). [ ]: non-standard residue; d: D form. The star is where a group is joined. X138 = CN([C@@H](Cc1cc(Cl)ccc1-c1ccc(S(=O)(=O)N2CCCC2)cc1)C(=O)[*:2])[*:1]; X127 = CN([C@@H](Cc1cc(F)ccc1-c1cnn(S(=O)(=O)C2CC2)c1)C(=O)[*:2])[*:1]; X42 = CN([C@@H](Cc1cc(Cl)ccc1-c1cnn(S(=O)(=O)C2CC2)c1)C(=O)[*:2])[*:1]; X134 = CN([C@@H](Cc1cc(Cl)ccc1-c1cnc2[nH]c(O)cc2c1)C(=O)[*:2])[*:1]; X195 = CC(=O)Nc1ccc(-c2ccc(Cl)cc2C[C@@H](C(=O)[*:2])N(C)[*:1])cn1; X209 = CN([C@@H](Cc1cc(Cl)ccc1-c1cnc2nn(C)cc2c1)C(=O)[*:2])[*:1]; NMehhhLys(Me) = CN([C@@H](CCCCCCCN(C)[*:3])C(=O)[*:2])[*:1]; X174 = CN([C@@H](Cc1cc(Cl)cnc1-c1cnn(C)c1)C(=O)[*:2])[*:1]; X176 = CN([C@@H](Cc1cc(F)ccc1-c1cccnc1)C(=O)[*:2])[*:1]; NMe(hhhLys) = CN([C@@H](CCCCCCCN[*:3])C(=O)[*:2])[*:1]; NMe3Pal(2-OMe,5-Cl) = CN[C@@H](Cc1cc(Cl)cnc1OC)C(=O)O; Oxane2carbonyl(2R-CF3) = O=C([C@@]1(C(F)(F)F)CCCCO1)*; Cyclobutanecarbonyl(1-CF3) = O=C(C1(C(F)(F)F)CCC1)*; cBuCO(3,3-F2-1-CF3) = O=C(C1(C(F)(F)F)CC(F)(F)C1)*; X25 = CCOc1ncc(Cl)cc1C[C@@H](C(=O)[*:2])N(C)[*:1]; X161 = Cc1ccc(F)cc1C[C@@H](C(=O)[*:2])N(C)[*:1]; X4 = Cc1ccc(Cl)cc1C[C@@H](C(=O)[*:2])N(C)[*:1]; Pro(trans-4-F) = O=C(O)[C@@H]1C[C@@H](F)CN1; Pivaloyl(3,3,3-F3) = CC(C)(C(=O)*)C(F)(F)F; Gly(cPr) = N[C@H](C(=O)O)C1CC1
Key:
CyclinA2/CDK2 = target: T1, CyclinA2/CDK2 (Homo sapiens, UniProt P20248); test: Fluorescence Polarization (FP) competitive binding assay, Cyclin A2/Cdk2;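 also: plates equilibrated two hours at room temperature before polarization reading, IC50 fitted from eight-concentration compound titration curves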
T1 construct: purchased CRELUX Protein Services

CyclinB1/CDK1 = target: T2, CyclinB1/CDK1 (Homo sapiens, UniProt P14635); test: Fluorescence Polarization (FP) competitive binding assay, Cyclin B1/Cdk1;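 also: fluorescence polarization read after equilibration at room temperature, with IC50 taken from serially diluted dose-response curves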
T2 construct: purchased Eurofins, discovery 14-450

CyclinE1/CDK2 = target: T3, CyclinE1/CDK2 (Homo sapiens, UniProt P24864); test: Fluorescence Polarization (FP) competitive binding assay, Cyclin E1/Cdk2;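 also: readings taken after two-hour equilibration at room temperature in HEPES buffer with NaCl, DTT, NP-40 and BSA, IC50 fitted from eight-concentration serial dilution series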
T3 construct: purchased Eurofins, discovery 14-475

NCI-H1048 cells = test: MTT proliferation assay, NCI-H1048; type: cell-based; conditions: 5 days compound exposure, 1:3 serial dilution starting at 10 μM;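 also: Dose-response in 96-well plates over 8 or 10 concentration points, with exposure spanning 3-4 cell doublings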
OVCAR3 cells = test: MTT proliferation assay, OVCAR3; type: cell-based; conditions: 5 days compound exposure, 1:3 serial dilution starting at 10 μM;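 also: compound given as an 8- or 10-point series, one day after plating, with exposure covering roughly 3-4 cell doublings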
[1] = 8 nM Cyclin A2/Cdk2, 2 nM FAM probe, average of 2-3 independent experiments, read-out: Cyclin A FP IC50
[2] = 10 nM Cyclin B1/Cdk1, 2 nM FAM probe; average of 2-3 independent experiments; read-out: Cyclin B FP IC50
[3] = 10 nM Cyclin E1/Cdk2, 2 nM FAM probe, average of 2-3 independent experiments, read-out: Cyclin E FP IC50
[4] = read-out: Cyclin A FP IC50, 8 nM Cyclin A2/Cdk2, 2 nM FAM probe, average of 2-3 independent experiments
[5] = read-out: Cyclin B FP IC50; 10 nM Cyclin B1/Cdk1, 2 nM FAM probe; average of 2-3 independent experiments

SMILES | IC50 (CyclinA2/CDK2; [1]) [µM] | IC50 (CyclinB1/CDK1; [2]) [µM] | IC50 (CyclinE1/CDK2; [3]) [µM] | GI50 (NCI-H1048 cells) [µM] | GI50 (OVCAR3 cells) [µM] | IC50 (CyclinA2/CDK2; [4]) [µM] | IC50 (CyclinB1/CDK1; [5]) [µM] | IC50 (CyclinE1/CDK2) [µM] | IC50 (CyclinA2/CDK2) [µM]
CC(C)C[C@@H]1NC(=O)[C@@H](N(C)C(=O)[C@@H](NC(=O)[C@@H]2C[C@@H](F)CN2C(=O)C2(C(F)(F)F)CCC2)C2CC2)CCCCCCCN(C)C(=O)[C@H](Cc2cc(Cl)cnc2-c2cnn(C)c2)N(C)C1=O [Example 247] ({Cyclobutanecarbonyl(1-CF3)}-[Pro(trans-4-F)][Gly(cPr)][NMehhhLys(Me)]L[X174]; lactam 3-C) | 0.02 | 0.02 | 0.31 | 0.05 | 0.04 | – | – | – | –
CC(C)C[C@@H]1NC(=O)[C@@H](N(C)C(=O)[C@@H](NC(=O)[C@@H]2C[C@@H](F)CN2C(=O)[C@@]2(C(F)(F)F)CCCCO2)C2CC2)CCCCCCCN(C)C(=O)[C@H](Cc2cc(Cl)cnc2-c2cnn(C)c2)N(C)C1=O [Example 248] ({Oxane2carbonyl(2R-CF3)}-[Pro(trans-4-F)][Gly(cPr)][NMehhhLys(Me)]L[X174]; lactam 3-C) | – | – | – | 0.04 | 0.02 | 0.02 | 0.02 | 0.1 | –
CC(C)C[C@@H]1NC(=O)[C@@H](N(C)C(=O)[C@@H](NC(=O)[C@@H]2C[C@@H](F)CN2C(=O)C2(C(F)(F)F)CC(F)(F)C2)C2CC2)CCCCCCCN(C)C(=O)[C@H](Cc2cc(Cl)ccc2-c2cnc3nn(C)cc3c2)N(C)C1=O [Example 249] ({cBuCO(3,3-F2-1-CF3)}-[Pro(trans-4-F)][Gly(cPr)][NMehhhLys(Me)]L[X209]; lactam 3-C) | – | – | – | 0.01 | 0.01 | 0.02 | 0.02 | 0.59 | –
CC(C)C[C@@H]1NC(=O)[C@@H](N(C)C(=O)[C@@H](NC(=O)[C@@H]2C[C@@H](F)CN2C(=O)C2(C(F)(F)F)CC(F)(F)C2)C2CC2)CCCCCCCN(C)C(=O)[C@H](Cc2cc(F)ccc2-c2cnn(S(=O)(=O)C3CC3)c2)N(C)C1=O [Example 252] ({cBuCO(3,3-F2-1-CF3)}-[Pro(trans-4-F)][Gly(cPr)][NMehhhLys(Me)]L[X127]; lactam 3-C) | – | – | – | 0.01 | 0.02 | – | 0.02 | 0.38 | 0.03
CC(C)C[C@@H]1NC(=O)[C@@H](N(C)C(=O)[C@@H](NC(=O)[C@@H]2C[C@@H](F)CN2C(=O)C2(C(F)(F)F)CC(F)(F)C2)C2CC2)CCCCCCCN(C)C(=O)[C@H](Cc2cc(Cl)ccc2-c2cnn(S(=O)(=O)C3CC3)c2)N(C)C1=O [Example 254] ({cBuCO(3,3-F2-1-CF3)}-[Pro(trans-4-F)][Gly(cPr)][NMehhhLys(Me)]L[X42]; lactam 3-C) | 0.03 | 0.02 | 0.97 | 0.02 | 0.02 | – | – | – | –
Cc1ccc(Cl)cc1C[C@H]1C(=O)N(C)CCCCCCC[C@H](N(C)C(=O)[C@@H](NC(=O)[C@@H]2C[C@@H](F)CN2C(=O)C2(C(F)(F)F)CC(F)(F)C2)C2CC2)C(=O)N[C@@H](CC(C)C)C(=O)N1C [Example 263] ({cBuCO(3,3-F2-1-CF3)}-[Pro(trans-4-F)][Gly(cPr)][NMehhhLys(Me)]L[X4]; lactam 3-C) | 0.03 | 0.02 | 0.2 | 0.03 | 0.04 | – | – | – | –
Cc1ccc(F)cc1C[C@H]1C(=O)NCCCCCCC[C@H](N(C)C(=O)[C@@H](NC(=O)[C@@H]2C[C@@H](F)CN2C(=O)C2(C(F)(F)F)CC(F)(F)C2)C2CC2)C(=O)N[C@@H](CC(C)C)C(=O)N1C [Example 264] ({cBuCO(3,3-F2-1-CF3)}-[Pro(trans-4-F)][Gly(cPr)][NMe(hhhLys)]L[X161]; lactam 3-C) | 0.09 | 0.02 | 0.29 | 0.04 | 0.03 | – | – | – | –
CC(=O)Nc1ccc(-c2ccc(Cl)cc2C[C@H]2C(=O)N(C)CCCCCCC[C@H](N(C)C(=O)[C@@H](NC(=O)[C@@H]3C[C@@H](F)CN3C(=O)C3(C(F)(F)F)CC(F)(F)C3)C3CC3)C(=O)N[C@@H](CC(C)C)C(=O)N2C)cn1 [Example 265] ({cBuCO(3,3-F2-1-CF3)}-[Pro(trans-4-F)][Gly(cPr)][NMehhhLys(Me)]L[X195]; lactam 3-C) | 0.02 | 0.02 | 0.64 | 0.01 | 0.02 | – | – | – | –
CC(C)C[C@@H]1NC(=O)[C@@H](N(C)C(=O)[C@@H](NC(=O)[C@@H]2C[C@@H](F)CN2C(=O)C2(C(F)(F)F)CC(F)(F)C2)C2CC2)CCCCCCCN(C)C(=O)[C@H](Cc2cc(Cl)ccc2-c2ccc(S(=O)(=O)N3CCCC3)cc2)N(C)C1=O [Example 266] ({cBuCO(3,3-F2-1-CF3)}-[Pro(trans-4-F)][Gly(cPr)][NMehhhLys(Me)]L[X138]; lactam 3-C) | 0.02 | 0.02 | 2.22 | 0.03 | 0.05 | – | – | – | –
CC(=O)N1CC=C(c2ccc(Cl)cc2C[C@H]2C(=O)NCCCC=CCC[C@H](N(C)C(=O)[C@@H](NC(=O)[C@@H]3C[C@@H](F)CN3C(=O)C3(C(F)(F)F)CC(F)(F)C3)C3CC3)C(=O)N[C@@H](CC(C)C)C(=O)N2C)CC1 [Example 267] | 0.02 | 0.02 | 1.95 | 0.05 | 0.04 | – | – | – | –
COc1ncc(Cl)cc1C[C@H]1C(=O)N(C)CCCCCCC[C@H](N(C)C(=O)[C@@H](NC(=O)[C@@H]2C[C@@H](F)CN2C(=O)C(C)(C)C(F)(F)F)C2CC2)C(=O)N[C@@H](CC(C)C)C(=O)N1C [Example 268] ({Pivaloyl(3,3,3-F3)}-[Pro(trans-4-F)][Gly(cPr)][NMehhhLys(Me)]L[NMe3Pal(2-OMe,5-Cl)]; lactam 3-C) | 0.06 | 0.02 | 0.1 | 0.02 | 0.01 | – | – | – | –
CCOc1ncc(Cl)cc1C[C@H]1C(=O)N(C)CCCCCCC[C@H](N(C)C(=O)[C@@H](NC(=O)[C@@H]2C[C@@H](F)CN2C(=O)C(C)(C)C(F)(F)F)C2CC2)C(=O)N[C@@H](CC(C)C)C(=O)N1C [Example 269] ({Pivaloyl(3,3,3-F3)}-[Pro(trans-4-F)][Gly(cPr)][NMehhhLys(Me)]L[X25]; lactam 3-C) | 0.06 | 0.02 | 0.1 | 0.03 | 0.03 | – | – | – | –
CC(C)C[C@@H]1NC(=O)[C@@H](N(C)C(=O)[C@@H](NC(=O)[C@@H]2C[C@@H](F)CN2C(=O)C2(C(F)(F)F)CC(F)(F)C2)C2CC2)CCCCCCCN(C)C(=O)[C@H](Cc2cc(F)ccc2-c2cccnc2)N(C)C1=O [Example 271] ({cBuCO(3,3-F2-1-CF3)}-[Pro(trans-4-F)][Gly(cPr)][NMehhhLys(Me)]L[X176]; lactam 3-C) | 0.03 | 0.02 | 0.24 | 0.01 | 0.01 | – | – | – | –
CC(C)C[C@@H]1NC(=O)[C@@H](N(C)C(=O)[C@@H](NC(=O)[C@@H]2C[C@@H](F)CN2C(=O)C2(C(F)(F)F)CC(F)(F)C2)C2CC2)CCCCCCCN(C)C(=O)[C@H](Cc2cc(Cl)ccc2-c2cnc3[nH]c(O)cc3c2)N(C)C1=O [Example 272] ({cBuCO(3,3-F2-1-CF3)}-[Pro(trans-4-F)][Gly(cPr)][NMehhhLys(Me)]L[X134]; lactam 3-C) | 0.05 | 0.02 | 1.6 | 0.09 | 0.43 | – | – | – | –
CC(C)C[C@@H]1NC(=O)[C@@H](N(C)C(=O)[C@@H](NC(=O)[C@@H]2C[C@@H](F)CN2C(=O)C2(C(F)(F)F)CC(F)(F)C2)C2CC2)CCC=CCCCNC(=O)[C@H](Cc2cc(Cl)ccc2-c2cnn(S(C)(=O)=O)c2)N(C)C1=O [Example 273, (2S,4R)—N—((S)-2-(((3S,6S,9S)-3-(5-chloro-2-(1-(methylsulfonyl)-1H-pyrazol-4-yl)benzyl)-6-isobutyl-4-methyl-2,5,8-trioxo-1,4,7-triazacyclohexadec-12-en-9-yl)(methyl)amino)-1-cyclopropyl-2-oxoethyl)-1-(3,3-difluoro-1-(trifluoromethyl)cyclobutane-1-carbonyl)-4-fluoropyrrolidine-2-carboxamide] | 0.05 | 0.02 | 1.94 | 0.03 | 0.04 | – | – | – | –

Source: US20240408169A1 (priority 2023, published 2024)
